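GI50: concentration for 50% inhibition of growth. Definition used: TGI = concentration required for complete inhibition of growth.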
Legend:
Assay in all cases: NCI-60 cell line screen, 384-well format
[1] = system: HS 578T breast
[2] = system: NCI-H460 NSCLC
[3] = system: SK-MEL-5 melanoma
[4] = system: OVCAR-4 ovarian
[5] = system: MCF7 breast
[6] = system: PC-3 prostate
[7] = system: IGROV1 ovarian
[8] = system: SNB-75 CNS
[9] = system: CAKI-1 renal
[10] = system: TK-10 renal
[11] = system: HT29 colon
[12] = system: 786-0 renal
[13] = system: NCI-H23 lung

Compound | GI50 [1] [µM] | TGI [1] [µM] | GI50 [2] [µM] | TGI [2] [µM] | GI50 [3] [µM] | TGI [3] [µM] | GI50 [4] [µM] | TGI [4] [µM] | GI50 [5] [µM] | TGI [5] [µM] | GI50 [6] [µM] | TGI [6] [µM] | GI50 [7] [µM] | TGI [7] [µM] | GI50 [8] [µM] | TGI [8] [µM] | GI50 [9] [µM] | TGI [9] [µM] | GI50 [10] [µM] | TGI [10] [µM] | further results
CN1CCN(c2ccc(Nc3cc(-c4cccc(-n5ccc6cc(C7CC7)cc(F)c6c5=O)c4CO)cn(C)c3=O)nc2)CC1 | 1.82 | 3.48 | 2.06 | 4.14 | 1.62 | 3.02 | 1.63 | 3.11 | 1.79 | 4.37 | 3.78 | 12.1 | 2.89 | 9.19 | 1.73 | 3.44 | 2.18 | 5.6 | 2.32 | 5.77 | GI50 [11]: 1.72 µM; TGI [11]: 3.19 µM; GI50 [12]: 1.69 µM; TGI [12]: 3.39 µM; GI50 [13]: 2.73 µM; TGI [13]: 8.14 µM
O=C(NC[C@H](O)CN1CCc2ccccc2C1)c1cc(NC2COC2)ncn1 | > 100 | > 100 | 6 | > 100 | > 100 | > 100 | 21.8 | > 100 | > 41.5 | > 100 | > 100 | > 100 | > 100 | > 100 | > 100 | > 100 | > 100 | > 100 | > 100 | > 100 | GI50 [11]: > 100 µM; TGI [11]: > 100 µM; GI50 [12]: > 100 µM; TGI [12]: > 100 µM; GI50 [13]: > 100 µM; TGI [13]: > 100 µM

From PubChem BioAssay (NCI)
